Values quoted from earlier work, collected in paper PMC9516332 (Frontiers in Oncology, 2022).
Where two headings read alike, the source gives them in different places.

How the values were obtained:
[1] = molecular target: T1, panel of 255 wild-type kinases (Homo sapiens, UniProt Q9NZJ5); conditions: kinase PEK, 1 µmol/L single concentration, cited from earlier work
T1 sequence (Q9NZJ5 30-1116): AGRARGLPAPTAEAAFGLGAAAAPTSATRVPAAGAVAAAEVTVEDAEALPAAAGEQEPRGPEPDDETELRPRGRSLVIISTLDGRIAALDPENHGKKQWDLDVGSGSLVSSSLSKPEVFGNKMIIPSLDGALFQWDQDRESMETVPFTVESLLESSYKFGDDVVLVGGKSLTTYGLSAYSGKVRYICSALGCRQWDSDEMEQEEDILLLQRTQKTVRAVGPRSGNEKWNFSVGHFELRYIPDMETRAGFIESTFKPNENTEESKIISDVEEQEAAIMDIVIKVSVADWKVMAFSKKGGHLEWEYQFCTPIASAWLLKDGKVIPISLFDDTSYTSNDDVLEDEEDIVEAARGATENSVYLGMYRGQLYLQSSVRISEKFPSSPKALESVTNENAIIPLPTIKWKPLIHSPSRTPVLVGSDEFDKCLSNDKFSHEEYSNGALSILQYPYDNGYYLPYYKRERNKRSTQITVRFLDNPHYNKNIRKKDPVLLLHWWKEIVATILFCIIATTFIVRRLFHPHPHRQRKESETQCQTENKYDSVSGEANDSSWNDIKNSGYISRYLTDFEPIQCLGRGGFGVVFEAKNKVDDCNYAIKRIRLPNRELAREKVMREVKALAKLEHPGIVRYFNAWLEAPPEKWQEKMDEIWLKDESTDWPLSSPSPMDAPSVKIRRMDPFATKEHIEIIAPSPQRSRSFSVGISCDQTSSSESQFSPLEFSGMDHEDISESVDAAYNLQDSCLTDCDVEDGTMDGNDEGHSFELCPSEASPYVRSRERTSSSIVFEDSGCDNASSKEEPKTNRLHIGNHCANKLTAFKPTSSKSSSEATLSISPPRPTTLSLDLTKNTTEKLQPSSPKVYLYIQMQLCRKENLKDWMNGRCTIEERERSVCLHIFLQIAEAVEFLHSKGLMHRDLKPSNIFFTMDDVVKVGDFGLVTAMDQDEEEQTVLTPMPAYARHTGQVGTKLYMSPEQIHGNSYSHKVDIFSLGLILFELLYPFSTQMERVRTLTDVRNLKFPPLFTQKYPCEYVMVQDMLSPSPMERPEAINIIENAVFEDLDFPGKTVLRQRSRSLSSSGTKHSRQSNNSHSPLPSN

[2] = molecular target: panel of 255 wild-type kinases (Homo sapiens, UniProt Q9H422); conditions: kinase HIPK3, 1 µmol/L single concentration, cited from earlier work
[3] = molecular target: panel of 255 wild-type kinases (Homo sapiens, UniProt Q13153); conditions: PAK1, 1 µmol/L single concentration, cited from earlier work
[4] = molecular target: panel of 255 wild-type kinases (Homo sapiens, UniProt P17252); conditions: kinase PKCα, 1 µmol/L single concentration, cited from earlier work
[5] = molecular target: panel of 255 wild-type kinases (Homo sapiens, UniProt Q9UPE1); conditions: MSSK1, 1 µmol/L single concentration, cited from earlier work
[6] = molecular target: panel of 255 wild-type kinases (Homo sapiens, UniProt P49760); conditions: kinase CLK2, 1 µmol/L single concentration, cited from earlier work
[7] = molecular target: T2, panel of 255 wild-type kinases (Homo sapiens, UniProt Q12866); conditions: MER, 1 µmol/L single concentration, cited from earlier work
T2 sequence (Q12866 21-999): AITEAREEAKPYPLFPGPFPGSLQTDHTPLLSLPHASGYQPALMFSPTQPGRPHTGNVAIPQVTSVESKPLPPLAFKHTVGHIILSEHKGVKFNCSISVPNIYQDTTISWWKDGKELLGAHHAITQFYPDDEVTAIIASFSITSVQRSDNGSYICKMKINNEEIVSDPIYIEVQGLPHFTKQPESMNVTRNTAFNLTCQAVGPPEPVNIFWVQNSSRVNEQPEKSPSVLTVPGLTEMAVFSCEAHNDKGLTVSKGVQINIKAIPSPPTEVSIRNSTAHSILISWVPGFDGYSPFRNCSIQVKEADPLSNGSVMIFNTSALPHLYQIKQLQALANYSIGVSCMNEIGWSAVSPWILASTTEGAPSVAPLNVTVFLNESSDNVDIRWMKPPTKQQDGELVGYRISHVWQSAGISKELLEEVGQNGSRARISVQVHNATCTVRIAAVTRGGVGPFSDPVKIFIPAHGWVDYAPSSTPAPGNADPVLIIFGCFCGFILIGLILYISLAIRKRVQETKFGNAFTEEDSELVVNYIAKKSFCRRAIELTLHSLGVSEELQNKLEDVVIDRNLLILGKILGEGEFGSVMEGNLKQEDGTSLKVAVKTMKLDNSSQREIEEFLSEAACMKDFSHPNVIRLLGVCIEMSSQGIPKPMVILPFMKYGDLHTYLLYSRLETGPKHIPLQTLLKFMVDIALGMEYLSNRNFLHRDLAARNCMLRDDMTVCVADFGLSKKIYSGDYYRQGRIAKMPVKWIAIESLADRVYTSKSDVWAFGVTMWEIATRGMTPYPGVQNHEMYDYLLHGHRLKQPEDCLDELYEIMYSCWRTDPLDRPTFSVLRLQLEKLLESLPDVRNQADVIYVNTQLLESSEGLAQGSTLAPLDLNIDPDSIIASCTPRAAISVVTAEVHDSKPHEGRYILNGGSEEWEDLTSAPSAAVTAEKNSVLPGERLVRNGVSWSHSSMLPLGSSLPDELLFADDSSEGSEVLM

[8] = molecular target: panel of 255 wild-type kinases (Homo sapiens, UniProt Q9UQM7); conditions: CaMK2α kinase assay, 1 µmol/L single concentration, cited from earlier work
[9] = molecular target: panel of 255 wild-type kinases (Homo sapiens, UniProt Q08345); conditions: kinase DDR1, 1 µmol/L single concentration, cited from earlier work
[10] = ref DOI: 10.1371/journal.pone.0092146
[11] = ref DOI: 10.1158/1535-7163.MCT-18-0877

Compound | %-inhibition at 1 µmol/L, PEK [1, 10] [%] | %-inhibition at 1 µmol/L, HIPK3 [2, 10] [%] | %-inhibition, PAK1 [3, 10] [%] | %-inhibition at 1 µmol/L, PKCα [4, 10] [%] | %-inhibition, MSSK1 [5, 10] [%] | %-inhibition at 1 µmol/L, CLK2 [6, 10] [%] | %-inhibition, MER [7, 10] [%] | %-inhibition CaMK2α [8, 10] [%] | %-inhibition at 1 µmol/L, DDR1 [9, 10] [%] | %-inhibition at 1 µmol/L, PEK [1, 11] [%] | %-inhibition at 1 µmol/L, HIPK3 [2, 11] [%] | %-inhibition, PAK1 [3, 11] [%] | %-inhibition at 1 µmol/L, PKCα [4, 11] [%] | %-inhibition, MSSK1 [5, 11] [%] | %-inhibition at 1 µmol/L, CLK2 [6, 11] [%] | %-inhibition, MER [7, 11] [%] | %-inhibition CaMK2α [8, 11] [%] | %-inhibition at 1 µmol/L, DDR1 [9, 11] [%]
CCCS(=O)(=O)Nc1ccc(F)c(C(=O)c2c[nH]c3ncc(-c4ccc(Cl)cc4)cc23)c1F [vemurafenib] | 11 | -6 | -5 | -3.61 | -6.65 | -13 | 6 | -4.25 | 52 |  |  |  |  |  |  |  |  | 
CC(=O)Nc1cccc(-n2c(=O)n(C3CC3)c(=O)c3c(Nc4ccc(I)cc4F)n(C)c(=O)c(C)c32)c1 [trametinib] | 1.13 | 0.0849 | -1.35 | -5 | -5 | -5 | -6.62 | -1.65 |  |  |  |  |  |  |  |  |  | 
CCc1cc2c(cc1N1CCC(N3CCOCC3)CC1)C(C)(C)c1[nH]c3cc(C#N)ccc3c1C2=O [alectinib] |  |  |  |  |  |  |  |  |  | 9 | 3.19 | -14 | 1.48 | 97 | 14 | 56 | 0.405 | 16
CC(C)(C)c1nc(-c2cccc(NS(=O)(=O)c3c(F)cccc3F)c2F)c(-c2ccnc(N)n2)s1 [dabrafenib] |  | 65 |  |  | 2.55 | 0.875 | -0.876 | -2.14 | 96 |  |  |  |  |  |  |  |  | 
CC#CC(=O)N1CCC[C@H]1c1nc(-c2ccc(C(=O)Nc3ccccn3)cc2)c2c(N)nccn12 [acalabrutinib] |  |  |  |  |  |  |  |  |  | 8 | -12 | -0.369 | -17 | -5 | -7 | -3.37 | -3.43 | 8
O=C(c1ccc(F)c(F)c1Nc1ccc(I)cc1F)N1CC(O)([C@@H]2CCCCN2)C1 [cobimetinib] |  |  |  |  |  |  |  |  |  | 5 | 2.74 | 3.21 | 1.54 | 1.46 | 0.147 | 1.18 | 7 | 6.37
C=CC(=O)Nc1cc(Nc2nccc(-c3cn(C)c4ccccc34)n2)c(OC)cc1N(C)CCN(C)C [osimertinib] |  |  |  |  |  |  |  |  |  | 7 | 20 | -44 | 11 | 0.582 | 38 | 10 | 2 | 46
Cc1cc(Nc2ncc(Cl)c(Nc3ccccc3S(=O)(=O)C(C)C)n2)c(OC(C)C)cc1C1CCNCC1 [ceritinib] |  |  |  |  |  |  |  |  |  | 9.5 | 7.48 | 7.58 | -9 | 36 | 99 | 51 | 15 | 50
CO[C@@H]1[C@H](N(C)C(=O)c2ccccc2)C[C@H]2O[C@]1(C)n1c3ccccc3c3c4c(c5c6ccccc6n2c5c31)C(=O)NC4 [midostaurin] |  |  |  |  |  |  |  |  |  | 11 |  |  | 92 | -9 |  | 85 |  | 98
C=CC(=O)N1CCC[C@@H](n2nc(-c3ccc(Oc4ccccc4)cc3)c3c(N)ncnc32)C1 [ibrutinib] |  |  |  |  |  |  |  |  |  | 7.47 | 1.67 | 6.57 | 0.745 | 1.54 |  | 0.565 | -1.35 | 37
C[C@@H](Oc1cc(-c2cnn(C3CCNCC3)c2)cnc1N)c1c(Cl)ccc(F)c1Cl [crizotinib] | 1.1 | -6 | -4 | -8.47 |  | -6 |  | -2.77 | 97 |  |  |  |  |  |  |  |  | 
